{"source": "patent US10512667B2", "about": "“Compositions and methods for treating conditions related to adrenocortical activity and/or excessive steroid production” (The Regents of the University of Michigan, priority 2017, dated 2019)", "key": {"[1]": {"system": "H295R cells", "assay": "Visualization of NBD-cholesterol esterification", "format": "cell-based", "conditions": "compound 2 h then 2 h with NBD-cholesterol, hydrochloride", "experimental": "(§1) The cells were seeded in 96-well ibiTreat μ-Plates and allowed to adhere for 48 h prior to the start of each experiment. Cholesterol was detected in fixed cells by incubating with 100 μg/ml filipin III at 37 C for 2 h. The bound filipin III was imaged by fluorescence microscopy using 377/11 nm excitation and 447/60 nm emission wavelengths. Images were captured using either a 4× or a 60× objective. Cholesterol esterification was visualized by culturing the cells with 1 μM NBD-cholesterol for 2 h following incubation with the indicated compounds. NBD-cholesterol esters were imaged by fluorescence microscopy using 485/20 nm excitation wavelengths. Images were captured using either a 20× or a 60× objective.\n(§2) The cells were seeded in 96-well ibiTreat μ-Plates (Ibidi) in 100 μl at a density of 50,000 cells per well. […] 5 μl of NBD-cholesterol was added to each well to produce a final concentration of 1 μM. When NBD-cholesterol is esterified and localized to cytoplasmic lipid droplets, it produces bright fluorescent foci in the cell. The inhibition of ACAT activity prevents fluorescent focus formation by NBD-cholesterol (see, e.g., Lada, et al., 2004 J Lipid Res, 45, 378-86). After 1.5 h, 5 μl of Hoechst 33342 was added to each well to produce a final concentration of 3 μg/ml. After 30 min, the medium was replaced with fresh medium. NBD-cholesterol esterification was visualized by fluorescence microscopy using either 485/20 nm (NBD) or 387/11 nm (Hoechst) excitation wavelengths and images were captured using either a 60× oil objective or a 20× objective."}, "[2]": {"system": "BD140C cells", "assay": "Visualization of NBD-cholesterol esterification", "format": "cell-based", "conditions": "compound 2 h then 2 h with NBD-cholesterol", "experimental": "as §1, §2"}, "[3]": {"system": "H295R cells", "assay": "Cortisol secretion (indirect ELISA)", "format": "cell-based", "experimental": "Cortisol secretion was measured by replacing the culture medium with fresh medium containing the indicated compounds. The medium was collected at the indicated times. The cortisol concentration in the medium was measured using indirect ELISA (Arbor Assays).\nAfter 48 h, the medium was removed and replaced with 50 μl of fresh medium. After the indicated incubation time, aliquots of the supernatant ranging from 0.5 to 10 μl were diluted in 50 μl of medium were used to measure the amount of cortisol secreted. Cortisol detection and quantification were performed by indirect ELISA according to the manufacturer's protocol (Arbor Assays #K003)."}, "[4]": {"system": "BD140C cells", "assay": "Cellular ATP level (CellTiter-Glo)", "format": "cell-based", "quoted_text": "(§3) The ATP levels of cells were measured by lysis in CellTiter-Glo reagent (Promega), and measurement of the luminescence.\n(§4) After 48 h, 20-80 μl of medium was removed from each well and replaced with 20 μl of each compound diluted to 6× of the final concentration in the culture medium to produce a final volume of 120 μl. The cells were incubated at 37 C in 5% CO2 atmosphere for a time ranging from 15 min to 24 h. The medium was removed and immediately replaced with 50 μl of CellTiter-Glo luminescence cell viability assay reagent (Promega). The cells were lysed by agitation at room temperature for 20 min in the dark. The luminescence was measured using a SpectraMax M5 microplate reader (Molecular Devices) with a 0.5 s acquisition time. The luminescence (RLU) values for control cells ranged from 5000 to 20000 RLU in all experiments, and were scaled by a factor of 0.001 to plot all graphs."}, "[5]": {"system": "H295R cells", "assay": "Cholesterol efflux into serum-free medium with apoA1", "format": "cell-based", "conditions": "serum-free medium containing apoA-I, 4 h", "experimental": "Cholesterol efflux was measured by replacing the culture medium with serum-free medium supplemented with 5 μg/ml apoA1 (Sigma) and the indicated compounds. After the indicated time, the serum-free medium was collected, and the cholesterol concentration was measured using the fluorometric enzyme-linked assay (Cayman Chemical).\nAfter 48 h, the medium was removed and replaced with 50 μl serum-free medium supplemented with 5 μg/mL apoA1. After the indicated time, the supernatant containing the effluxed cholesterol, was transferred to a new 96-well plate. A cholesterol detection reagent (Cayman Chemical) consisting of cholesterol assay buffer, cholesterol assay detector (10-acetyl-3,7-dihydroxyphenoxazine [ADHP]), horseradish peroxidase, cholesterol oxidase, and cholesterol esterase was added, and the reactions were incubated for 30 min at 37 C. The fluorescence intensities were measured using ex. […] 590 nm. The cholesterol concentrations were calculated by interpolation between the values produced by cholesterol standards that were analyzed in parallel."}, "[6]": {"system": "H295R cells", "assay": "Resazurin reducing potential", "format": "cell-based", "conditions": "32 μM ATR-101", "experimental": "FIG. 4F: […] The cells were cultured with DMSO vehicle or 32 μM ATR-101 alone, or together with 2 mM MβCD. Resazurin fluorescence intensity was measured using a microplate reader at the indicated times at 37 C. The background signal of wells without resazurin was subtracted. […] DMSO control, *P<0.05)."}, "[7]": {"system": "H295R cells", "assay": "Cellular ATP level (CellTiter-Glo)", "quoted_text": "as §3, §4"}, "[8]": {"biological_target": "T1, MDR1 (Homo sapiens, UniProt P08183)", "T1 construct": "measured the accumulation of doxorubicin in H295R cells; endogenous in cells; host or cells: H295R adrenocortical carcinoma cells", "assay": "Doxorubicin accumulation / clearance in H295R cells", "format": "cell-based", "conditions": "25 μM doxorubicin, 2 h", "experimental": "The medium was removed and immediately replaced with 100 μl of fresh media and intracellular doxorubicin fluorescence was visualized by fluorescence microscopy using a 20× objective."}}, "note": "Entries after “also recorded” stand apart in the source; their conditions may differ.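 Throughout, for concentration required for ATP depletion and caspase activation relative to the concentration that inhibited cholesterol esterification: ATP quantified by luminescence after lysing the cells in CellTiter-Glo reagent, with compound exposure at 37 °C under 5% CO2.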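 Throughout, for fold lower concentration that reduced the ATP level in combination than required separately: ATP quantified by luminescence after lysing the cells in CellTiter-Glo reagent, with compound exposure at 37 °C under 5% CO2.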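 Throughout, for time after ATR-101 addition at which ATP depletion was detected: ATP quantified by luminescence after lysing the cells in CellTiter-Glo reagent, with compound exposure at 37 °C under 5% CO2.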"}
{"smiles": "CC(C)c1cccc(C(C)C)c1NC(=O)NCC1(c2ccc(N(C)C)cc2)CCCC1.Cl", "note": "[ATR-101, N-(2,6-bis(1-methylethyl)phenyl)-N′-((1-(4-(dimethylamino)phenyl)cyclopentyl)methyl)urea hydrochloride]", "values": [{"measurement": "NBD-cholesterol esterification and accumulation in lipid droplets", "setting": "[1]", "result": "inhibits NBD-cholesterol esterification; also recorded: eliminated both the intense foci and the diffuse fluorescence"}, {"measurement": "NBD-cholesterol esterification and accumulation in lipid droplets", "setting": "[2]", "result": "inhibited NBD-cholesterol esterification"}, {"measurement": "basal and forskolin-stimulated cortisol secretion", "setting": "[3]; 100 μM ATR-101, with or without 100 μM forskolin", "result": "blocked both basal and forskolin-stimulated cortisol secretion"}, {"measurement": "cortisol secretion, compound alone", "setting": "[3]; cortisol in medium, 4 h or time course, hydrochloride", "result": "inhibited cortisol secretion"}, {"measurement": "ATP level, compound alone", "setting": "[4]; 4 h", "result": "reduced the ATP level"}, {"measurement": "ATP level, compound alone", "setting": "[4]; 24 h", "result": "reduced the ATP levels"}, {"measurement": "cholesterol efflux, compound alone", "setting": "[5]", "result": "inhibited cholesterol efflux"}, {"measurement": "resazurin fluorescence", "setting": "[6]", "result": "sustained increase in resazurin fluorescence"}, {"measurement": "concentration required for ATP depletion and caspase activation relative to the concentration that inhibited cholesterol esterification", "setting": "[7]; ACC-derived cells, 4 h", "result": "more than two orders of magnitude higher"}, {"measurement": "time after ATR-101 addition at which ATP depletion was detected", "setting": "[7]; H295R cells, 100 μM ATR-101", "result": 30, "unit": "min"}, {"measurement": "fold lower concentration that reduced the ATP level in combination than required separately", "setting": "[7]; H295R cells, ATR-101 and rhodamine-123 in combination, 4 h", "result": 10, "unit": "fold"}, {"measurement": "ATP level, compound alone", "setting": "[7]; H295R cells, serum-containing medium, 4 h", "result": "reduced the ATP level"}, {"measurement": "ATP level, compound alone", "setting": "[7]; H295R cells, serum-containing medium, 24 h", "result": "reduced the ATP levels"}, {"measurement": "ATP level, compound alone", "setting": "[7]; H295R cells, serum-free medium, 4 h", "result": "caused ATP depletion"}, {"measurement": "doxorubicin accumulation", "setting": "[8]; 20 μM compound", "result": "increased doxorubicin accumulation"}, {"measurement": "doxorubicin accumulation in the presence of MβCD", "setting": "[8]; 100 μM ATR-101, 4 mM MβCD", "result": "caused doxorubicin accumulation in the presence of MβCD"}]}
